Data taken from ChEMBL document CHEMBL4800727 (2021).
Calls of active or inactive are those of the source. The calls are words filed in the database; no cut-off is given here.

What was measured:
[1] = biological target: cAMP and cAMP-inhibited cGMP 3',5'-cyclic phosphodiesterase 10A (Homo sapiens, UniProt Q9Y233); experiment: SPA with human PDE10A
[2] = biological target: Cyclin-dependent kinase 2/cyclin A (Homo sapiens) (UniProt P24941+P20248+P78396); experiment: cyclin-dependent kinase 2 / clyclinA Millipore kinase panel; format: protein-complex assay; settings: Compound concentration 10.0 uM
[3] = biological target: CDK3/cyclin E (Homo sapiens) (UniProt P24864+O96020+Q00526); experiment: cyclin-dependent kinase 3 / cyclinE Millipore kinase panel; format: protein-complex assay; settings: Compound concentration 10.0 uM
[4] = biological target: Serine/threonine-protein kinase DCLK2 (Homo sapiens) (UniProt Q8N568); experiment: doublecortin-like kinase 2 Millipore kinase panel; settings: Compound concentration 10.0 uM
[5] = biological target: Eukaryotic elongation factor 2 kinase (Homo sapiens) (UniProt O00418); experiment: eukaryotic elongation factor-2 kinase Millipore kinase panel; settings: Compound concentration 10.0 uM
[6] = biological target: Tyrosine-protein kinase Fes/Fps (Homo sapiens) (UniProt P07332); experiment: feline sarcoma oncogene Millipore kinase panel; settings: Compound concentration 10.0 uM
Chain of Tyrosine-protein kinase Fes/Fps (Homo sapiens) (P07332 whole entry): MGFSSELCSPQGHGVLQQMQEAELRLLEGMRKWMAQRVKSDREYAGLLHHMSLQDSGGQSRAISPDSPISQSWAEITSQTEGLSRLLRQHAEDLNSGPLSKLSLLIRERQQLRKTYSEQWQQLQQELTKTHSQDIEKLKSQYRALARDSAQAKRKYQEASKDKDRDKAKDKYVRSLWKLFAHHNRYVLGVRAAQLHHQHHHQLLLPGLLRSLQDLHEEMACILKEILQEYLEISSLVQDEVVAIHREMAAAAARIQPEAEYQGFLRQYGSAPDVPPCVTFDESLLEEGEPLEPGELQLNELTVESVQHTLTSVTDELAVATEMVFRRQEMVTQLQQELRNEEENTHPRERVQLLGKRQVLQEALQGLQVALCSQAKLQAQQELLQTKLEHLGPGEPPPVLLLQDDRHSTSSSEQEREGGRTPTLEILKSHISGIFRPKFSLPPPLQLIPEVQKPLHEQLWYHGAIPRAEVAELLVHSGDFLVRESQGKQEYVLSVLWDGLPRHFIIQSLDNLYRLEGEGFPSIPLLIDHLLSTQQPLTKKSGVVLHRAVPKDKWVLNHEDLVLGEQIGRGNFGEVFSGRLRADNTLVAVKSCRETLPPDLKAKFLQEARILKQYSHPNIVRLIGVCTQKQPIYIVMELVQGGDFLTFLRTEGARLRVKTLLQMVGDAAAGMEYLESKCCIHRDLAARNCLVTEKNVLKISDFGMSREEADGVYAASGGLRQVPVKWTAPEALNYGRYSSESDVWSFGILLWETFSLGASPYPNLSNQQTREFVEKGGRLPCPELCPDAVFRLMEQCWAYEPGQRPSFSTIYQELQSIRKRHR

[7] = biological target: Fibroblast growth factor receptor 4 (Homo sapiens) (UniProt P22455); experiment: fibroblast growth factor receptor 4 Millipore kinase panel; settings: Compound concentration 10.0 uM
[8] = biological target: Tyrosine-protein kinase FRK (Homo sapiens) (UniProt P42685); experiment: fyn-related kinase Millipore kinase panel; settings: Compound concentration 10.0 uM
[9] = biological target: Tyrosine-protein kinase Fyn (Homo sapiens) (UniProt P06241); experiment: FYN oncogene related to SRC, FGR, YES Millipore kinase panel; settings: Compound concentration 10.0 uM
Chain of Tyrosine-protein kinase Fyn (Homo sapiens) (P06241 2-537 limits assumed): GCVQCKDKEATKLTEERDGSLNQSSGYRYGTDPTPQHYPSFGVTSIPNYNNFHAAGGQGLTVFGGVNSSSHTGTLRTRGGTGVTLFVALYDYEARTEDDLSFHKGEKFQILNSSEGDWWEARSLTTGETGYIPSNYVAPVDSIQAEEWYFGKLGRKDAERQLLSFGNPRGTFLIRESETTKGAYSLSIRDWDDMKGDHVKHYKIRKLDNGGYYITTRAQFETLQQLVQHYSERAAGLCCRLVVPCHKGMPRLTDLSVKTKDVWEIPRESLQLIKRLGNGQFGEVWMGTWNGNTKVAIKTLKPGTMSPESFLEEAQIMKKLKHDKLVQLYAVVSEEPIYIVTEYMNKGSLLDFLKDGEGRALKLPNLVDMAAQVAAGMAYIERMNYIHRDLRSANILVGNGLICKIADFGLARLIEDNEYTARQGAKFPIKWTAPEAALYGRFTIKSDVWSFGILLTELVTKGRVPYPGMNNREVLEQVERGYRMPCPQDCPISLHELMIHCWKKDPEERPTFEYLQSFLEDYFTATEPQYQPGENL

[10] = biological target: Insulin receptor-related protein (Homo sapiens) (UniProt P14616); experiment: insulin receptor-related receptor Millipore kinase panel; settings: Compound concentration 10.0 uM
[11] = biological target: Interleukin-1 receptor-associated kinase 1 (Homo sapiens) (UniProt P51617); experiment: interleukin-1 receptor-associated kinase 1 Millipore kinase panel; settings: Compound concentration 10.0 uM
[12] = biological target: Serine/threonine-protein kinase MARK1 (Homo sapiens) (UniProt Q9P0L2); experiment: MAP/microtubule affinity-regulating kinase 1 Millipore kinase panel; settings: Compound concentration 10.0 uM
[13] = biological target: MAP kinase-activated protein kinase 3 (Homo sapiens) (UniProt Q16644); experiment: mitogen-activated protein kinase-activated protein kinase 3 Millipore kinase panel; settings: Compound concentration 10.0 uM
[14] = biological target: Mitogen-activated protein kinase 11 (Homo sapiens) (UniProt Q15759); experiment: mitogen-activated protein kinase 11 Millipore kinase panel; settings: Compound concentration 10.0 uM
[15] = biological target: Mitogen-activated protein kinase 14 (Homo sapiens) (UniProt Q16539); experiment: mitogen-activated protein kinase 14 Millipore kinase panel; settings: Compound concentration 10.0 uM
[16] = biological target: High affinity nerve growth factor receptor (Homo sapiens) (UniProt P04629); experiment: neurotrophic tyrosine kinase, receptor, type 1 Millipore kinase panel; settings: Compound concentration 10.0 uM
Chain of High affinity nerve growth factor receptor (Homo sapiens) (P04629 33-796 limits assumed): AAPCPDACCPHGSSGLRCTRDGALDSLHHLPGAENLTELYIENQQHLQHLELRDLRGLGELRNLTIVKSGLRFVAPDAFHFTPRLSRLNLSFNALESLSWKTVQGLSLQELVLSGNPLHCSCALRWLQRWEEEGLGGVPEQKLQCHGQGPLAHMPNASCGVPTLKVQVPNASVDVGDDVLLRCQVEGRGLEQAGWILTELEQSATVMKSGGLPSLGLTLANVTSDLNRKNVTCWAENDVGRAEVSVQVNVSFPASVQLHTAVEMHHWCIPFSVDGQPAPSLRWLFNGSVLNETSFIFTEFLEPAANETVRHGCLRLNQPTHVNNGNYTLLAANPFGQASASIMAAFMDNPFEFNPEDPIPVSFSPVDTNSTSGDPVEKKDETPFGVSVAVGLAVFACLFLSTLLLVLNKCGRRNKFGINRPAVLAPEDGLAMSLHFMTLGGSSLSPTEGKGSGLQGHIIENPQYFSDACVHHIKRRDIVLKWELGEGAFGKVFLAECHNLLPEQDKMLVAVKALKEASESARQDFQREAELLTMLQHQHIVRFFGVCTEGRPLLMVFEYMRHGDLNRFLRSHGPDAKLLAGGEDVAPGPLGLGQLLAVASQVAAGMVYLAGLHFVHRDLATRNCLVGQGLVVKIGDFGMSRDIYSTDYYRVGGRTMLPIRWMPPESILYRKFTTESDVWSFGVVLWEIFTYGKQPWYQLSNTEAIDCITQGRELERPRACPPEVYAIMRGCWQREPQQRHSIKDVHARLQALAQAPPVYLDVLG

[17] = biological target: Phosphatidylinositol 4,5-bisphosphate 3-kinase catalytic subunit beta isoform (Homo sapiens) (UniProt P42338); experiment: phosphoinositide-3-kinase, catalytic, beta polypeptide Millipore kinase panel; settings: Compound concentration 10.0 uM
[18] = biological target: Phosphatidylinositol 4,5-bisphosphate 3-kinase catalytic subunit gamma isoform (Homo sapiens) (UniProt P48736); experiment: phosphoinositide-3-kinase, catalytic, gamma polypeptide Millipore kinase panel; settings: Compound concentration 10.0 uM
Chain of Phosphatidylinositol 4,5-bisphosphate 3-kinase catalytic subunit gamma isoform (Homo sapiens) (P48736 whole entry, looked up, canonical isoform): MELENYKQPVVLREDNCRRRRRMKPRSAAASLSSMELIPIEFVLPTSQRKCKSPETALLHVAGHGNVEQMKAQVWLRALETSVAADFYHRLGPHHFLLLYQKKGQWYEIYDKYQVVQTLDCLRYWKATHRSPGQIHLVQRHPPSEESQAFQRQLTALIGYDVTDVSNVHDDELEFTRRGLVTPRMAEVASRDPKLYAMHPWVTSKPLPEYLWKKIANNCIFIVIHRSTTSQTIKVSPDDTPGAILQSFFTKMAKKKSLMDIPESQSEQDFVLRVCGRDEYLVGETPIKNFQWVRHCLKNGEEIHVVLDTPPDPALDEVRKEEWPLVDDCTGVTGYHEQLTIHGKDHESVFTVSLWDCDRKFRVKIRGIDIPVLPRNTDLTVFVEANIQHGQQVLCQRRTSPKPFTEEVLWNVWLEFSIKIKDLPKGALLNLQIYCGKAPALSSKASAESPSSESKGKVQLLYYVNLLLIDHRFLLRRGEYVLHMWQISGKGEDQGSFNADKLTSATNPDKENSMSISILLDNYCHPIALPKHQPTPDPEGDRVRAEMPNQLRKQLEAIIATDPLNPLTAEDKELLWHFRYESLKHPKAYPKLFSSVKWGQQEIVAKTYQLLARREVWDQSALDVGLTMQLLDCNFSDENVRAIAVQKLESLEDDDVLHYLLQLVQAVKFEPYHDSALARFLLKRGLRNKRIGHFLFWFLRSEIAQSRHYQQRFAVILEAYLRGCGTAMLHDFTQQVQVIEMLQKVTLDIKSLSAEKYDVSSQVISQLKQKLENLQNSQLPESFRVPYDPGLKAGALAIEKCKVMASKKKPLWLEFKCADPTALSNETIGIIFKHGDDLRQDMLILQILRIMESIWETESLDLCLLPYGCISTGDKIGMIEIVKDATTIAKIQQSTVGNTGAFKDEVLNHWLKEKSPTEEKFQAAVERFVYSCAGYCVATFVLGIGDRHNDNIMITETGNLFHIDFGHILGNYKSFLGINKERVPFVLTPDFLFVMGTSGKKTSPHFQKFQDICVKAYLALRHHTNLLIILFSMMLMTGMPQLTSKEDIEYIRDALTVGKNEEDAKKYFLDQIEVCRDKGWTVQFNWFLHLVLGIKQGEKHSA

[19] = biological target: Phosphorylase b kinase gamma catalytic chain, liver/testis isoform (Homo sapiens) (UniProt P15735); experiment: phosphorylase kinase, gamma 2 Millipore kinase panel; settings: Compound concentration 10.0 uM
[20] = biological target: Protein kinase C iota type (Homo sapiens) (UniProt P41743); experiment: protein kinase C, iota Millipore kinase panel; settings: Compound concentration 10.0 uM
[21] = biological target: Serine/threonine-protein kinase 17A (Homo sapiens) (UniProt Q9UEE5); experiment: serine/threonine kinase 17a Millipore kinase panel; settings: Compound concentration 10.0 uM
[22] = biological target: Serine/threonine-protein kinase Sgk3 (Homo sapiens) (UniProt Q96BR1); experiment: serum/glucocorticoid regulated kinase family, member 3 Millipore kinase panel; settings: Compound concentration 10.0 uM
Chain of Serine/threonine-protein kinase Sgk3 (Homo sapiens) (Q96BR1 whole entry): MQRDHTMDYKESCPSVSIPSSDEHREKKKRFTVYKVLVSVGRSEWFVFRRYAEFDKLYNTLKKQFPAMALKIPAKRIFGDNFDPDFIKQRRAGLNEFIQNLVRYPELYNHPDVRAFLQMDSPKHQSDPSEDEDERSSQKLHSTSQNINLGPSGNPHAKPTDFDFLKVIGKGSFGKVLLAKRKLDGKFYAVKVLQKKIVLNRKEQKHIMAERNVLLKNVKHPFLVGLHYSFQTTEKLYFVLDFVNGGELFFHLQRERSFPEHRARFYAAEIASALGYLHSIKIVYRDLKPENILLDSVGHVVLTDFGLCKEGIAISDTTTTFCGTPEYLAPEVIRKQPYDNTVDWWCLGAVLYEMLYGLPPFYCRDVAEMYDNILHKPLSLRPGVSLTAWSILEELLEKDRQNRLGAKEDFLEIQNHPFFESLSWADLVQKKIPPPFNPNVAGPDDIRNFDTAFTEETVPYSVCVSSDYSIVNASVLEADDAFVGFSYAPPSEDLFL

[23] = biological target: Toll-like receptor 4 (Homo sapiens) (UniProt O00206); experiment: Toll like receptor 4 Millipore kinase panel; settings: Compound concentration 10.0 uM
[24] = biological target: Serine/threonine-protein kinase WNK2 (Homo sapiens) (UniProt Q9Y3S1); experiment: WNK lysine deficient protein kinase 2 Millipore kinase panel; settings: Compound concentration 10.0 uM
[25] = biological target: cGMP-specific 3',5'-cyclic phosphodiesterase (Homo sapiens, UniProt O76074); experiment: hPDE5A3 PDE scan
[26] = biological target: Cannabinoid receptor 1 (Homo sapiens) (UniProt P21554); experiment: hCB1 Cerep panel; settings: Compound concentration 10.0 uM
Rattus norvegicus = species: Rattus norvegicus; experiment: rCa channel Cerep panel; settings: Compound concentration 10.0 uM
[27] = biological target: Gastrin/cholecystokinin type B receptor (Homo sapiens) (UniProt P32239); experiment: hCCK2 Cerep panel; settings: Compound concentration 10.0 uM
Chain of Gastrin/cholecystokinin type B receptor (Homo sapiens) (P32239 whole entry): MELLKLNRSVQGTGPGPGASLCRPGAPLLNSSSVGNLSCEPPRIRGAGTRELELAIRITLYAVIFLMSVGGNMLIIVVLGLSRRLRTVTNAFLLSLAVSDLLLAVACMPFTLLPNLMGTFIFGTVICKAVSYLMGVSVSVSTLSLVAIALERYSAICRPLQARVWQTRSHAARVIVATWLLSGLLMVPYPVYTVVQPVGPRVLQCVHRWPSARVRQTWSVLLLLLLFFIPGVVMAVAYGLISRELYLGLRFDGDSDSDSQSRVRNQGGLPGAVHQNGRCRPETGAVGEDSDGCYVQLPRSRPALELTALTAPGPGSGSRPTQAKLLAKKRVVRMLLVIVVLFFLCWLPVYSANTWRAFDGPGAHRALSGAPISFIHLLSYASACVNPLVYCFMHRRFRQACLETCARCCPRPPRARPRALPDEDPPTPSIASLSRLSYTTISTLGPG

[28] = biological target: Glutamate receptor ionotropic, AMPA (Rattus norvegicus) (UniProt P19491+P19492+P19493+P19490); experiment: rGlutamate (ionotropic) AMPA Cerep panel; format: protein-complex assay; settings: Compound concentration 10.0 uM
[29] = biological target: Neuromedin-K receptor (Homo sapiens) (UniProt P29371); experiment: hNK3 Cerep panel; settings: Compound concentration 10.0 uM
[30] = biological target: Glutamate NMDA receptor (Rattus norvegicus) (UniProt P35439+Q00959+Q00960+Q00961+Q62645+Q8VHN2+Q9R1M7); experiment: rPCP Cerep panel; format: protein-complex assay; settings: Compound concentration 10.0 uM
[31] = biological target: T1, 5-hydroxytryptamine receptor 1A (Homo sapiens) (UniProt P08908); experiment: h5HT1A Cerep panel; settings: Compound concentration 10.0 uM
T1 sequence (whole entry): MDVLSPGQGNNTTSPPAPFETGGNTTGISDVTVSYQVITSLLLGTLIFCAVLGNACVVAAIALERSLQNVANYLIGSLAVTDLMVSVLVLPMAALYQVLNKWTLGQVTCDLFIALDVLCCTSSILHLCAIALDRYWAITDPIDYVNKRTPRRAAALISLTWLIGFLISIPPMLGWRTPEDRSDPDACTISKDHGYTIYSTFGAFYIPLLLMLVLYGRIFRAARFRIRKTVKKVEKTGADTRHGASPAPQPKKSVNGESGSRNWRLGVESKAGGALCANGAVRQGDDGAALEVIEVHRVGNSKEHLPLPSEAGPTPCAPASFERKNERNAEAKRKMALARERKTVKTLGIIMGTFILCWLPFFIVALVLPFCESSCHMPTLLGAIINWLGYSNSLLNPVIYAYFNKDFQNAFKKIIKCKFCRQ

[32] = biological target: T2, 5-hydroxytryptamine receptor 2C (Homo sapiens) (UniProt P28335); experiment: h5HT2C Cerep panel; settings: Compound concentration 10.0 uM
T2 sequence (whole entry): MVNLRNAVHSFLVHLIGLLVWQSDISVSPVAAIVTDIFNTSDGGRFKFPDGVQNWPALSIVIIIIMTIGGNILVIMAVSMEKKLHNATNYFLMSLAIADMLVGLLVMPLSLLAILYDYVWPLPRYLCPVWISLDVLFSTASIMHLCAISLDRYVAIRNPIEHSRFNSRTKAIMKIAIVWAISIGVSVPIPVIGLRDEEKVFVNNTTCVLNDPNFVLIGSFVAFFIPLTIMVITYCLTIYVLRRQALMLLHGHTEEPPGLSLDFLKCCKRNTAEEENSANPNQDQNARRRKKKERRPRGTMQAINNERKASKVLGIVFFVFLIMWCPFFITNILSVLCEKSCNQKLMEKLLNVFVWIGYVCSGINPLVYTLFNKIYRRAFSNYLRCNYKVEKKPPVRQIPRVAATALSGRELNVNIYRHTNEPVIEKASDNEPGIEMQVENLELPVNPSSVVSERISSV

[33] = biological target: Histamine H1 receptor (Homo sapiens) (UniProt P35367); experiment: hH1 Cerep panel; settings: Compound concentration 10.0 uM
Chain of Histamine H1 receptor (Homo sapiens) (P35367 whole entry): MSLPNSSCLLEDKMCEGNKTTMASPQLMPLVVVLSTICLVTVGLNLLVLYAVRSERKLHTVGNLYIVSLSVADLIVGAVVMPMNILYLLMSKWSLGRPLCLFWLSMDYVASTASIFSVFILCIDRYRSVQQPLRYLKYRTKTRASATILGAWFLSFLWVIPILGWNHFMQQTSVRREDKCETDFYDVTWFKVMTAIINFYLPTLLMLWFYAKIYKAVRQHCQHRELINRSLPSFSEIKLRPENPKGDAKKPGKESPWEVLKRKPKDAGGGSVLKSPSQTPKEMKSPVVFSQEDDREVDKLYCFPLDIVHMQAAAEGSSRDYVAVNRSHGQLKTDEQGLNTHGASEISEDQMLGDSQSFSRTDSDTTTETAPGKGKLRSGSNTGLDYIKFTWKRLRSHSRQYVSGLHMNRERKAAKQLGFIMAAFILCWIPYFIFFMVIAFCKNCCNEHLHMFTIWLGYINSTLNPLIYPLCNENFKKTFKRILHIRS

[34] = biological target: Androgen receptor (Homo sapiens) (UniProt P10275); experiment: hAR Cerep panel; settings: Compound concentration 10.0 uM
[35] = biological target: Translocator protein (Homo sapiens) (UniProt P30536); experiment: hTSPO Cerep panel; settings: Compound concentration 10.0 uM
Chain of Translocator protein (Homo sapiens) (P30536 whole entry): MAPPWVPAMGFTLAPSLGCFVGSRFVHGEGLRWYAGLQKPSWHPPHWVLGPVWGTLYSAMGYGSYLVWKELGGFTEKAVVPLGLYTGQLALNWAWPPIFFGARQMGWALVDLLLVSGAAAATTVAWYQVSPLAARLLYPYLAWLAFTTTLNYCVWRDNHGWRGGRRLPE

## COCCc1ccc(-c2c(C)nc3c(N4CCOCC4)ccnn23)cn1 [JNJ-42396302]
[1]
  Ki: 0.013 µM (active)
[2]
  inhibition: 2%
[3]
  inhibition: 7%
[4]
  inhibition: -6%
[5]
  inhibition: -2%
[6]
  inhibition: 13%
[7]
  inhibition: -7%
[8]
  inhibition: -7%
[9]
  inhibition: 3%
[10]
  inhibition: 10%
[11]
  inhibition: -3%
[12]
  inhibition: -6%
[13]
  inhibition: 3%
[14]
  inhibition: -2%
[15]
  inhibition: -4%
[16]
  inhibition: 7%
[17]
  inhibition: 1%
[18]
  inhibition: -4%
[19]
  inhibition: -3%
[20]
  inhibition: 3%
[21]
  inhibition: -9%
[22]
  inhibition: 1%
[23]
  inhibition: -5.24%
[24]
  inhibition: -1%
[25]
  Ki: 8.5 µM
[26]
  effect: 4.05%
Rattus norvegicus
  effect: 4.75%
[27]
  effect: -5.55%
[28]
  effect: 7.7%
[29]
  effect: -8.65%
[30]
  effect: -3.5%
[31]
  effect: 8.65%
[32]
  effect: -1.95%
[33]
  effect: 2.05%
[34]
  effect: -13.8%
[35]
  effect: 2.8%
